Assay results reported in ChEMBL document CHEMBL4402553, “Recent advances in the discovery and development of glyoxalase I inhibitors” (Bioorg Med Chem, 2020).

Columns and labels:
Lactoylglutathione lyase [1] = target: Lactoylglutathione lyase (Mus musculus, UniProt Q9CPU0); experiment: Competitive inhibition of recombinant mouse His-tagged Glyoxalase-1 using GSH and MGO as substrate by spectrophotometric method
Lactoylglutathione lyase [2] = target: T1, Lactoylglutathione lyase (Homo sapiens, UniProt Q04760); experiment: Competitive inhibition of human Glyoxalase-1 using GSH and MGO as substrate
T1 sequence (Q04760 whole entry): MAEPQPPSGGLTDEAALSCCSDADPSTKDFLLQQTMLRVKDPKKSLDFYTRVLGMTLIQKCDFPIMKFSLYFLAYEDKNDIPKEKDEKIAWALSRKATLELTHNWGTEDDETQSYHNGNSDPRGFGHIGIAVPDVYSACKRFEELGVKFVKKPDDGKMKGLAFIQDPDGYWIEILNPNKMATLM

Lactoylglutathione lyase [3] = target: T1, Lactoylglutathione lyase; experiment: Inhibition of human Glyoxalase-1
Lactoylglutathione lyase [4] = target: T1, Lactoylglutathione lyase; experiment: Inhibition of Glyoxalase-1 (unknown origin)
Lactoylglutathione lyase [5] = target: T1, Lactoylglutathione lyase; experiment: Competitive inhibition of human Glyoxalase-1 using GSH and MGO as substrate by Michaelis-Menten analysis

Lactoylglutathione lyase (Mus musculus, UniProt Q9CPU0), sequence (Q9CPU0 whole entry): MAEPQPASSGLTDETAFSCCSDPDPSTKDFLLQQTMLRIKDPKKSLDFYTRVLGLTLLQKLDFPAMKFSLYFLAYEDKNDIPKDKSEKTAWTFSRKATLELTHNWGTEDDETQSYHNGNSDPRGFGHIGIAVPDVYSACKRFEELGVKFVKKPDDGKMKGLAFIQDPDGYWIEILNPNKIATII

COC(=O)c1c(C)cc(Oc2cc(C)cc(O)c2O)cc1O
Ki (Lactoylglutathione lyase [1]): 230 nM

C#Cc1cccc(N(O)C(=O)CC[C@H](NC(=O)CC[C@H](N)C(=O)O)C(=O)NCC(=O)O)c1
Ki (Lactoylglutathione lyase [2]): 1 nM

N[C@@H](CCC(=O)N[C@@H](CSC(=O)N(O)c1ccc(I)cc1)C(=O)NCC(=O)O)C(=O)O
Ki (Lactoylglutathione lyase [3]): 10 nM

C#Cc1ccc(N(O)C(=O)SC[C@H](NC(=O)CC[C@H](N)C(=O)O)C(=O)NCC(=O)O)cc1
Ki (Lactoylglutathione lyase [2]): 7 nM

NS(=O)(=O)c1ccc2c(c1)S(=O)(=O)NC2=O
IC50 (Lactoylglutathione lyase [4]): 90000 nM

O=C(O)CNC(=O)[C@H](CSC(=O)N(O)c1ccc(Cl)cc1)NC(=O)CC[C@H](NC(=O)CCNC(=O)CCNC(=O)CCNC(=O)CCNC(=O)CCNC(=O)CCNC(=O)CCCCCCC(=O)NCCC(=O)NCCC(=O)NCCC(=O)NCCC(=O)NCCC(=O)NCCC(=O)N[C@@H](CCC(=O)N[C@@H](CSC(=O)N(O)c1ccc(Cl)cc1)C(=O)NCC(=O)O)C(=O)O)C(=O)O
Ki (Lactoylglutathione lyase [5]): 0.96 nM

C#Cc1cccc(N(O)C(=O)SC[C@H](NC(=O)CC[C@H](N)C(=O)O)C(=O)NCC(=O)O)c1
Ki (Lactoylglutathione lyase [2]): 19 nM

Cc1cc(O)c(O)c(Oc2cc(C)c(C(=O)O)c(O)c2)c1
Ki (Lactoylglutathione lyase [1]): 150 nM
